This assay deals with T1, full-length ATR (Homo sapiens, UniProt Q13535).
T1 construct: in the presence of 5 nM full-length ATR
T1 sequence (Q13535 whole entry): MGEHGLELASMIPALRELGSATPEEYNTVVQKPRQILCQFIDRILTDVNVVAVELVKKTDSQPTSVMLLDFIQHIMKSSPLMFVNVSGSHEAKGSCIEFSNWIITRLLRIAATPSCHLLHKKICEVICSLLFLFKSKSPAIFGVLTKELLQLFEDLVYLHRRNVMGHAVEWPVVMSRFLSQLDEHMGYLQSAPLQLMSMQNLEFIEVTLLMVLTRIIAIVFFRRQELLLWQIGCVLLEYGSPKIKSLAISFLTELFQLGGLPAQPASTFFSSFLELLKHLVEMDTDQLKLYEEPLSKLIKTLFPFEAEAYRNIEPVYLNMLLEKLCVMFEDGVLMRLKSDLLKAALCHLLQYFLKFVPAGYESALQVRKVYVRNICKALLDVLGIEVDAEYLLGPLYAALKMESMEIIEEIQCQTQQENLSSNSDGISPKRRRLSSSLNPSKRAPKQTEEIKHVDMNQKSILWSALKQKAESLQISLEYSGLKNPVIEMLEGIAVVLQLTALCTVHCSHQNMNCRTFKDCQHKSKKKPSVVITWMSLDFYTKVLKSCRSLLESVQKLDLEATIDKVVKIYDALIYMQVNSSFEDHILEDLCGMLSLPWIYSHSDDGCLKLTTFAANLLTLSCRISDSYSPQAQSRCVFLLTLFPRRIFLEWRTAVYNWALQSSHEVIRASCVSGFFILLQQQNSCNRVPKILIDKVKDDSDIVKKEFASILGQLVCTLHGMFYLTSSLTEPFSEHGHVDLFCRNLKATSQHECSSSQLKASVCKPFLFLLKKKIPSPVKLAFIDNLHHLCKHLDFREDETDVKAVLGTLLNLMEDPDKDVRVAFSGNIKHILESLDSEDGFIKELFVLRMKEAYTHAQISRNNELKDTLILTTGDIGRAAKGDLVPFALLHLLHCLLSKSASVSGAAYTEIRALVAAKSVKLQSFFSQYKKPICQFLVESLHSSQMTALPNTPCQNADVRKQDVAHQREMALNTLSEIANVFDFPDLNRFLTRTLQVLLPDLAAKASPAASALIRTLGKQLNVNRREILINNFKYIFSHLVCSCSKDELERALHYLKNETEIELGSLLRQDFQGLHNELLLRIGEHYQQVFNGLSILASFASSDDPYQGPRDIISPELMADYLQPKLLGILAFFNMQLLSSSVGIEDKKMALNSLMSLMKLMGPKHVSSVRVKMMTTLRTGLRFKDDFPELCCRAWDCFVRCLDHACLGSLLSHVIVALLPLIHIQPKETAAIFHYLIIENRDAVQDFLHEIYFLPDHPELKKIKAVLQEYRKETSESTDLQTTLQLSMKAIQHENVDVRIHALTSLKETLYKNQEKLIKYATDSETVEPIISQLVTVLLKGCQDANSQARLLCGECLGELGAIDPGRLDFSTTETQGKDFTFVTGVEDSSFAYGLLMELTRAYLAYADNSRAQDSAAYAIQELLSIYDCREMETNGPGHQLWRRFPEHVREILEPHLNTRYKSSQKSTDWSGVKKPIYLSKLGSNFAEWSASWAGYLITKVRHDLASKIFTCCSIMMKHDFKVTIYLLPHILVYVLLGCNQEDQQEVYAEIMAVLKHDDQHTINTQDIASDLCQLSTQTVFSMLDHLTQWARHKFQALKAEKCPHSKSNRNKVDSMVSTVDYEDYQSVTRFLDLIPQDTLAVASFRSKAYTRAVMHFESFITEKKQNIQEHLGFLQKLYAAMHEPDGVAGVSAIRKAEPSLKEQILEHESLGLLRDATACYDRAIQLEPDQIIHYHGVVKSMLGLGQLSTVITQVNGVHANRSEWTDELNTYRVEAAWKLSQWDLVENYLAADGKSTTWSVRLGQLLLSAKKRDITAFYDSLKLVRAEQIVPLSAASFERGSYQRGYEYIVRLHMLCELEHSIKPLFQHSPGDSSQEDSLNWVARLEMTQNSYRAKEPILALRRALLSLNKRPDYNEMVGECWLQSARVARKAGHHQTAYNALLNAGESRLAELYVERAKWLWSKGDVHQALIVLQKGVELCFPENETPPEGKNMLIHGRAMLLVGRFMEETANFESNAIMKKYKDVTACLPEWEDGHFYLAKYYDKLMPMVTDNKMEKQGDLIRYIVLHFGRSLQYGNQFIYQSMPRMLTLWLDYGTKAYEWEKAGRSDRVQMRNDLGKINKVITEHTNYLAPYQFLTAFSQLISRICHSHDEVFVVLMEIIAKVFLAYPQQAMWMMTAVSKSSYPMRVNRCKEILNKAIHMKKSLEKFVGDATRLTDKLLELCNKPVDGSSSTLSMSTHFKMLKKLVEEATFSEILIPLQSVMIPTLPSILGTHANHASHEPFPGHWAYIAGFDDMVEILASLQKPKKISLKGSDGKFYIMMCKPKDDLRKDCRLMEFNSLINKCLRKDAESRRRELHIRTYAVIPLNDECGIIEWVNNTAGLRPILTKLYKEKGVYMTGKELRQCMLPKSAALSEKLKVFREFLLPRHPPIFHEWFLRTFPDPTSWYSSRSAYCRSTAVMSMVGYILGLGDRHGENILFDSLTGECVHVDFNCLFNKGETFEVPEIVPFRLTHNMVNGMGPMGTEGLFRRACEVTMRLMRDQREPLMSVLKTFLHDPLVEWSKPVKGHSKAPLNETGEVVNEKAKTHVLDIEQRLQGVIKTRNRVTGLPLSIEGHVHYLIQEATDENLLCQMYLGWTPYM
The experiment in a line: ATR Inhibition Assay (radioactive-phosphate incorporation). The assay is classed as biochemical. Particulars: Ki(app); 5 nM full-length ATR, 10 μM ATP, 800 μM target peptide, 25° C. The method, boiled down:
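Buffer was 50 mM Tris/HCl pH 7.5, 10 mM MgCl2, 1 mM DTT, with 5 nM enzyme, 10 μM [γ-33P]ATP and 800 μM target peptide at 25 °C. Compound was pre-incubated 10 min before ATP start, and the reaction was stopped after 24 h. Phosphocellulose filter capture; Ki(app) came from non-linear regression of background-corrected initial rates.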
`Nc1ncc(C2=CCN(S(=O)(=O)c3cccnc3)CC2)nc1-c1nc2ccccc2[nH]1` [Compound I-241, 3-(1H-benzo[d]imidazol-2-yl)-5-(1-(pyridin-3-ylsulfonyl)-1,2,3,6-tetrahydropyridin-4-yl)pyrazin-2-amine]: the Ki is under 0.1 µM. Turning to `CC(=O)N1CCN(c2cnc(N)c(C(=O)Nc3ccccn3)n2)CC1` [Compound I-142, 3-amino-6-(4-ethanoylpiperazin-1-yl)-N-(pyridin-2-yl)pyrazine-2-carboxamide], the Ki is 1 to 10 µM. Next, `CCCS(=O)(=O)N1CC=C(c2cnc(N)c(-c3nc4ccccc4[nH]3)n2)CC1` [Compound I-291, 3-(1H-benzimidazol-2-yl)-5-(1-propylsulfonyl-3,6-dihydro-2H-pyridin-4-yl)pyrazin-2-amine]: under 0.1 µM; `Nc1ncc(-n2ccc(=O)cc2)nc1-c1nc2ccccc2[nH]1` [Compound I-311, 1-[5-amino-6-(1H-benzimidazol-2-yl)pyrazin-2-yl]pyridin-4-one]: under 0.1 µM; `CNCc1ccc(-c2nnc(-c3nc(N4CC[C@@H](CNC(C)=O)C4)cnc3N)o2)cc1` [Compound I-323, N-[[(3S)-1-[5-Amino-6-[5-[4-(methylaminomethyl)phenyl]-1,3,4-oxadiazol-2-yl]pyrazin-2-yl]pyrrolidin-3-yl]methyl]acetamide]: under 0.1 µM. For the molecule `Cc1ccc2nc(-c3nc(N4CCS(=O)(=O)CC4)cnc3N)[nH]c2c1` [Compound I-21, 5-(1,1-dioxo-1,4-thiazinan-4-yl)-3-(6-methyl-1H-benzimidazol-2-yl)pyrazin-2-amine], the Ki lay in the range of 1 to 10 µM. Next, `Nc1ncc(N2CCN(C(=O)c3ccccn3)CC2)nc1-c1nc2ccccc2[nH]1` [Compound I-176, (4-(5-amino-6-(1H-benzo[d]imidazol-2-yl)pyrazin-2-yl)piperazin-1-yl)(pyridin-2-yl)methanone]: 0.1 to 1 µM; `CN1CCN(C(=O)N2CC=C(c3cnc(N)c(-c4nc5ccccc5[nH]4)n3)CC2)CC1` [Compound I-161, (4-(5-amino-6-(1H-benzo[d]imidazol-2-yl)pyrazin-2-yl)-5,6-dihydropyridin-1(2H)-yl)(4-methylpiperazin-1-yl)methanone]: 0.1 to 1 µM; `CCS(=O)(=O)N1CC2CN(c3cnc(N)c(-c4nc5ccc(C)cc5[nH]4)n3)CC2C1` (stereo not shown) [Compound I-158, 5-(5-(ethylsulfonyl)hexahydropyrrolo[3,4-c]pyrrol-2(1H)-yl)-3-(6-methyl-1H-benzo[d]imidazol-2-yl)pyrazin-2-amine]: 0.1 to 1 µM. For `CCS(=O)(=O)N1CC2CN(c3cnc(N)c(-c4nnc(-c5ccc(CNC)cc5)o4)n3)CC2C1` (stereo not shown) [Compound I-332, 5-(2-Ethylsulfonyl-1,3,3a,4,6,6a-hexahydropyrrolo[3,4-c]pyrrol-5-yl)-3-[5-[4-(methylaminomethyl)phenyl]-1,3,4-oxadiazol-2-yl]pyrazin-2-amine], the Ki lay within 1 to 10 µM. Regarding `CNCc1ccc(-c2nnc(-c3nc(N4CCC5(CCN(C)C5=O)CC4)cnc3N)o2)cc1` [Compound I-344, 8-[5-Amino-6-[5-[4-(methylaminomethyl)phenyl]-1,3,4-oxadiazol-2-yl]pyrazin-2-yl]-2-methyl-2,8-diazaspiro[4.5]decan-1-one], the Ki was under 0.1 µM.

Take `CCS(=O)(=O)N1CC2CN(c3cnc(N)c(-c4nc5ccccc5[nH]4)n3)CC2C1` (stereo not shown) [Compound I-295, 3-(1H-benzimidazol-2-yl)-5-(2-ethylsulfonyl-1,3,3a,4,6,6a-hexahydropyrrolo[3,4-c]pyrrol-5-yl)pyrazin-2-amine]: the Ki was 1 to 10 µM. For `Nc1ncc(N2CCNCC2)nc1-c1nnc(-c2ccccc2)o1` [Compound I-37, 3-(5-phenyl-1,3,4-oxadiazol-2-yl)-5-(piperazin-1-yl)pyrazin-2-amine], the Ki lay in the range of 1 to 10 µM. Next, `Cc1ccc2nc(-c3nc(N4CCn5cnnc5C4)cnc3N)[nH]c2c1` [Compound I-281, 5-(5,6-dihydro-[1,2,4]triazolo[4,3-a]pyrazin-7(8H)-yl)-3-(6-methyl-1H-benzo[d]imidazol-2-yl)pyrazin-2-amine]: 1 to 10 µM; `CCS(=O)(=O)N1CCN(c2cnc(N)c(-c3cc4ccccc4o3)n2)CC1` [Compound I-29, 3-(benzofuran-2-yl)-5-(4-(ethylsulfonyl)piperazin-1-yl)pyrazin-2-amine]: 0.1 to 1 µM. The result for `Cc1ccc2nc(-c3nc(N4CCN(c5ccccc5C#N)CC4)cnc3N)[nH]c2c1` [Compound I-50, 2-(4-(5-amino-6-(6-methyl-1H-benzo[d]imidazol-2-yl)pyrazin-2-yl)piperazin-1-yl)benzonitrile] reads 1 to 10 µM; that for `Cc1ccc2nc(-c3nc(N4CCN(c5ccccn5)CC4)cnc3N)[nH]c2c1` [Compound I-64, 3-(6-methyl-1H-benzo[d]imidazol-2-yl)-5-(4-(pyridin-2-yl)piperazin-1-yl)pyrazin-2-amine], 1 to 10 µM. The result for `Nc1ncc(N2CCN(S(=O)(=O)Cc3ccccc3)CC2)nc1-c1nnc(-c2ccccc2)o1` [Compound I-99, 5-(4-(benzylsulfonyl)piperazin-1-yl)-3-(5-phenyl-1,3,4-oxadiazol-2-yl)pyrazin-2-amine] reads 0.1 to 1 µM.

`Nc1ncc(N2CCN(C(=O)OCc3ccccc3)CC2)nc1-c1nnc(-c2ccccc2)o1` [Compound I-255, benzyl 4-(5-amino-6-(5-phenyl-1,3,4-oxadiazol-2-yl)pyrazin-2-yl)piperazine-1-carboxylate]: the Ki is 1 to 10 µM. The result for `CCC(CC)C(=O)N1CCN(c2cnc(N)c(C(=O)Nc3ccccn3)n2)CC1` [Compound I-212, 3-amino-6-(4-(2-ethylbutanoyl)piperazin-1-yl)-N-(pyridin-2-yl)pyrazine-2-carboxamide] reads 1 to 10 µM; that for `Nc1ncc(C2=CCN(C(=O)N3CCCCC3)CC2)nc1-c1nc2ccccc2[nH]1` [Compound I-249, (4-(5-amino-6-(1H-benzo[d]imidazol-2-yl)pyrazin-2-yl)-5,6-dihydropyridin-1(2H)-yl)(piperidin-1-yl)methanone], 0.1 to 1 µM; that for `Nc1ncc(N2CCN(C(=O)OCc3ccccc3)CC2)nc1C(=O)Nc1ccccn1` [Compound I-260, benzyl 4-(5-amino-6-(pyridin-2-ylcarbamoyl)pyrazin-2-yl)piperazine-1-carboxylate], 1 to 10 µM. The result for `CC(C)C(=O)N1CC=C(c2cnc(N)c(-c3nnc(-c4ccccc4)o3)n2)CC1` [Compound I-192, 1-(4-(5-amino-6-(5-phenyl-1,3,4-oxadiazol-2-yl)pyrazin-2-yl)-5,6-dihydropyridin-1(2H)-yl)-2-methylpropan-1-one] reads under 0.1 µM. Next, `CCS(=O)(=O)N1CC=C(c2cnc(N)c(C(=O)Nc3nc4ccccc4[nH]3)n2)CC1` [Compound I-172, 3-amino-N-(1H-benzo[d]imidazol-2-yl)-6-(1-(ethylsulfonyl)-1,2,3,6-tetrahydropyridin-4-yl)pyrazine-2-carboxamide]: under 0.1 µM; `Nc1ncc(N2CCN(C(=O)C3CCC3)CC2)nc1-c1nc2ccccc2[nH]1` [Compound I-174, (4-(5-amino-6-(1H-benzo[d]imidazol-2-yl)pyrazin-2-yl)piperazin-1-yl)(cyclobutyl)methanone]: 1 to 10 µM.

These data come from patent US8410112B2, “Compounds useful as inhibitors of ATR kinase” (Vertex Pharmaceuticals Incorporated, priority 2008, dated 2013).
